Consider nine compounds from patent US11547681B2, “N-acylethanolamide derivatives and uses thereof” (ELIEM THERAPEUTICS, INC., priority 2016, dated 2023).

Series [1] in a line: Plasma stability (37° C., pH 7.4), dog. In kind it is in vitro ADME, Beagle dog. Particulars: for % Remaining of Initial (n = 1), 0 min / % Remaining of Initial (n = 1), 15 min / % Remaining of Initial (n = 1), 30 min / % Remaining of Initial (n = 1), 60 min / % Remaining of Initial (n = 1), 120 min / % Remaining of Initial: dog plasma; for % Remaining of Initial (n = 1), 0 min: pH 7.4, 0 min; for % Remaining of Initial (n = 1), 15 min: pH 7.4, 15 min; for % Remaining of Initial (n = 1), 30 min: pH 7.4, 30 min; for % Remaining of Initial (n = 1), 60 min: pH 7.4, 60 min; for % Remaining of Initial (n = 1), 120 min: pH 7.4, 120 min; for half-life at 1 μM: male, Beagle, dog, plasma; for % Remaining of Initial: n = 1; for % Remaining of Initial (n = 1): Dog plasma. On the procedure: (§1) Studies were carried out in mixed-gender human plasma (Lot #GLP530-5), male Sprague-Dawley rat (Lot #RAT297944, RAT313140), male CD-1 mouse (Lot #MSE237700), and male Beagle dog (Lot #BGL87670, BGL82614), collected on sodium heparin. Plasma was adjusted to pH 7.4 prior to initiating the experiments. DMSO stocks were first prepared for the test articles. Aliquots of the DMSO solutions were dosed into 700 μL of plasma, which had been pre-warmed to 37° C., at a final test article concentration of 1 μM. […] Samples were stored at 4° C. until the end of the experiment. After the final time point was sampled, the plate was mixed and then centrifuged at 3,000 rpm for 10 minutes. Calibration standards were prepared in matched matrix. […] Analytical conditions are outlined in Appendix 8-1.
as §1, with “#AS1650-2),” for “#GLP530-5),”, “#RAT297944),” for “#RAT297944, RAT313140),”, “CD-I” for “CD-1”, “#BGL91384),” for “#BGL87670, BGL82614),”, “10-1.” for “8-1.”
Studies were carried out in mixed-gender human plasma (Lot #AS1650-2), male Sprague-Dawley rat (Lot #RAT297944), male CD-1 mouse (Lot #MSE237700), and male Beagle dog (Lot #BGL91384), collected on sodium heparin. Plasma was adjusted to pH 7.4 prior to initiating the experiments. DMSO stocks were first prepared for test articles. […] Samples were stored at 4° C. until the end of experiment. After the final time point was sampled, the plate was mixed and then centrifuged at 3,000 rpm for 10 minutes. Calibration standards were prepared in matched matrix. […] Analytical conditions are outlined in Appendix 13-1.
Studies were carried out in mixed-gender human plasma (Lot #AS 1650-2), male Sprague-Dawley rat (Lot #RAT320835), male CD-1 mouse (Lot #MSE260693), and 6 male Beagle dog (Lot #BGL91384), on sodium heparin. Plasma was adjusted to pH 7.4 prior to initiating the experiments. DMSO stocks were first prepared for the test articles. Aliquots of the DMSO solutions were dosed into 700 μL of plasma, which had been pre-warmed to 37° C., at a final test article concentration of 1 μM. […] Samples were stored at 4° C. until the end of the experiment. After the final time point was sampled, the plate was mixed and then centrifuged at 3,000 rpm for 10 minutes. Calibration standards were prepared in matched matrix. […] Analytical conditions are outlined in Appendix 17-1.

For series [2] the following is noted: male, Sprague-Dawley, rat, in vivo.
Protocol: PEA was also dosed intravenously at 1 mg/kg. Blood samples were collected up to 8 hours post-dose, and PEA and PEA-prodrug plasma concentrations were determined with a qualified LC-MS/MS method. Pharmacokinetic analysis was conducted by a non-compartmental model using Phoenix WinNonlin v.6.4 software.
The IV dosing solution was prepared fresh on the day of dosing at 0.5 mg/mL in a vehicle comprised of 10% solutol HS15, 10% n-methylpyrrolidone (NMP), 10% polyethylene glycol 400 (PEG400), and 70% water. For PO dosing, torpac capsules were loaded with an appropriate amount of PEA, PEA-prodrug, or normast powder. […] The prodrug dose in group 5 was the maximum amount of powder that would fit into a single capsule.
The pharmacokinetics of PEA and the PEA-prodrug were evaluated in fasted male Sprague-Dawley rats. Rats were housed one per cage. Each rat was fitted with a jugular vein cannula (JVC) for blood collection. Rats intended for IV dosing were fitted with an additional JVC for dosing. Each study group was dosing in triplicate. Rats were fasted for a minimum of twelve hours prior to dosing. Food was returned at four hours post dosing. Animals had free access to water throughout the study.
Blood samples (˜300 μL) were collected from the rats via a JVC and placed into chilled polypropylene tubes containing sodium heparin as an anticoagulant, and 30 μL of 0.5 M citric acid. Samples were maintained chilled throughout processing. Blood samples were centrifuged at 4° C. and 3,000 g for 5 minutes. Plasma (˜150 μL) was then transferred to a chilled, labeled polypropylene tube containing 15 μL of 10% formic acid, placed on dry ice, and stored in a freezer maintained at −60° C. to −80° C.
Pharmacokinetic parameters were determined with Phoenix WinNonlin (v6.4) software using a non-compartmental model. Maximum plasma concentrations (C0) after IV dosing were estimated by extrapolation of the first two time points back to t=0. […] Area under the time concentration curve (AUC) was calculated using the linear trapezoidal rule with calculation to the last quantifiable data point, and with extrapolation to infinity if applicable. […] Mean residence time, MRT, was calculated by dividing the area under the moment curve (AUMC) by the AUC. Clearance (CL) was calculated from dose/AUC. Steady-state volume of distribution (Vss) was calculated from CL*MRT (mean residence time). Bioavailability was determined by dividing the individual PO dose normalized AUClast values by the average IV AUClast value. Any samples below the limit of quantitation were treated as zero for pharmacokinetic data analysis.
Measured concentrations of PEA in plasma samples were corrected by subtracting the concentration of PEA measured in the pre-dose samples. […] Any corrected values that were negative are reported as not determined (ND).
Series [3] is described as follows: Simulated intestinal fluid stability, SIF containing pancreatin. It counts as in vitro ADME. Particulars: for % Remaining of Initial (n = 1): 1 μM (Example 14); for Measured Concentration of Drug: test article dosed at 1 μM (Example 14). On the procedure: (§2) Studies were carried out in simulated intestinal fluid containing pancreatin. Simulated intestinal fluid was prepared by dissolving 6.8 g of monobasic potassium phosphate in 1.0 L of water. Pancreatin was then added to the solution and the pH was adjusted to 6.8. A DMSO stock was first prepared for the test articles. Aliquots of the DMSO solution were dosed into 300 μL of matrix, which had been pre-warmed to 37° C., at a final test article concentration of 1 μM. An individual tube was dosed for each time point. At each time point (0, 15, 30, 60, and 120 minutes), 900 μL of ice-cold acetonitrile containing 1.0% formic acid was added to an individual tube. Starting time for each tube was staggered such that all timepoints would finish at the same time. After the conclusion of the experiment, tubes were mixed and then centrifuged at 3,000 rpm for 10 minutes. Calibration standards were prepared in matched matrix. […] Analytical conditions are outlined in Appendix 11-1.
as §2, with “prepared for test articles.” for “prepared for the test articles.”, “Aliquots of DMSO solution” for “Aliquots of the DMSO solution”, “individual tube. The starting time for” for “individual tube. Starting time for”, “that all time points would finish” for “that all timepoints would finish”, “in Appendix 14-1.” for “in Appendix 11-1.”

The nature of series [4]: Summary of half life data (Table A), matrix not stated. It counts as in vitro ADME.
Where [5] appears, read: pH 7.4, dog plasma, test article 1 μM, 37° C., pH 7.4.

The half-life is how long it takes for the measured level to halve. Take `CCCCCCCCCCCCCCCC(=O)NCCOC(=O)CCC` [Compound I-2]: in series [1] (test article 1 μM, 37° C.), the “% Remaining of Initial (n = 1), 0 min” value is 100%; the “% Remaining of Initial (n = 1), 15 min” value worked out at 95%; the “% Remaining of Initial (n = 1), 30 min” value is reported as 71%; the “% Remaining of Initial (n = 1), 60 min” value amounted to 54%. The “% Remaining of Initial (n = 1), 120 min” value in series [1] (test article 1 μM, 37° C.) worked out at 24%. In series [1] (setting [5]), this compound showed a half-life at 1 μM of 61 min.
As for `CCCCCCCCCCCCCCCC(=O)NCCOC(=O)CCC(=O)OCC(COC(=O)CCCCCCC)OC(=O)CCCCCCC` (centres unmarked) [Compound I-3, PEA-Succinate-Glycerol-Di-Caprylic], in series [1] (test article 1 μM, 37° C.), the “% Remaining of Initial (n = 1), 0 min” value was 100%; the “% Remaining of Initial (n = 1), 15 min” value was 90%; the “% Remaining of Initial (n = 1), 30 min” value was 90%; the “% Remaining of Initial (n = 1), 60 min” value is recorded as 95%. The “% Remaining of Initial (n = 1), 120 min” value in series [1] (test article 1 μM, 37° C.) amounted to 99%. Also, in series [1] (setting [5]), the half-life at 1 μM was above 120 min.
Consider `CC/C=C\C/C=C\C/C=C\C/C=C\C/C=C\CCCC(=O)OCCNC(=O)CCCCCCCCCCCCCCC` [Compound I-5], for which, in series [1] (test article 1 μM, 37° C.), the “% Remaining of Initial (n = 1), 0 min” value was found to be 100%; the “% Remaining of Initial (n = 1), 15 min” value is reported as 87%; the “% Remaining of Initial (n = 1), 30 min” value is reported as 98%; the “% Remaining of Initial (n = 1), 60 min” value was 87%. The “% Remaining of Initial (n = 1), 120 min” value in series [1] (test article 1 μM, 37° C.) was found to be 83%. The half-life at 1 μM in series [1] (setting [5]) is above 120 min. In addition, the “PEA plasma concentration, 0 (pre-dose)” value in series [2] is listed as 3.66 ng/mL.
For the compound `CCCCC/C=C\C/C=C\CCCCCCCC(=O)OCCNC(=O)CCCCCCCCCCCCCCC` [Compound I-6], in series [1] (test article 1 μM, 37° C.), the “% Remaining of Initial (n = 1), 0 min” value was found to be 100%; the “% Remaining of Initial (n = 1), 15 min” value is on record as 55%; the “% Remaining of Initial (n = 1), 30 min” value worked out at 42%; the “% Remaining of Initial (n = 1), 60 min” value is reported as 34%. For the same compound, in series [1] (test article 1 μM, 37° C.), the “% Remaining of Initial (n = 1), 120 min” value is on record as 22%. Besides, the half-life at 1 μM in series [1] (setting [5]) stood at 36 min.
In the case of `CCCCCCCCCCCCCCCC(=O)NCCOC(=O)CCC(=O)OC[C@H]1O[C@@](CO)(O[C@H]2O[C@H](CO)[C@@H](O)[C@H](O)[C@H]2O)[C@@H](O)[C@@H]1O` [Compound I-7], in series [1] (test article 1 μM, 37° C.), the “% Remaining of Initial (n = 1), 0 min” value worked out at 100%; the “% Remaining of Initial (n = 1), 15 min” value is below 1.0%; the “% Remaining of Initial (n = 1), 30 min” value is recorded as below 1.0%; the “% Remaining of Initial (n = 1), 60 min” value is below 1.0%. The “% Remaining of Initial (n = 1), 120 min” value in series [1] (test article 1 μM, 37° C.) was below 1.0%. The half-life at 1 μM in series [1] (setting [5]) was below 1 min.
For `CCCCCCCCCCCCCCCC(=O)NCCOC(=O)CCC(=O)OC(CO)CO` [Compound I-8], the “% Remaining of Initial (n = 1)” value in series [3] (0 min) is on record as 100%; in series [3] (15 min) it was 17%; in series [3] (30 min), 6.8%; in series [3] (60 min), below 1.3%; in series [3] (120 min), below 1.3%. Also, the “Measured Concentration of Drug” value is 0.94 µM in series [3] (0 min); 0.16 µM in series [3] (15 min); 0.064 µM in series [3] (30 min); 0 µM in series [3] (60 min); 0 µM in series [3] (120 min). The half-life at 1 μM was 6.2 min in series [3] (simulated intestinal fluid with pancreatin, pH 6.8, 1 μM (Example 14)) and below 1 min in series [1] (pH 7.4, dog plasma). Moreover, the “% Remaining of Initial” value was 100% in series [1] (0 min, 1 μM); below 1.0% in series [1] (15 min, 1 μM); below 1.0% in series [1] (30 min, 1 μM); below 1.0% in series [1] (60 min, 1 μM); below 1.0% in series [1] (120 min, 1 μM). Also, the Bioavailability in series [2] (po) stood at 17.3%. Besides, in series [2] (po), the “Dose-normalized AUC∞ of PEA” value is 11.2 kg·ng·h/mL/mg. Besides, the half-life in series [4] amounted to 6.2 min.
As for `CCCCCCCCCCCCCCCC(=O)NCCOC(=O)CCC(=O)OCC(COC(=O)CCC)OC(=O)CCC` (centres unmarked) [Compound I-11], in series [1] (test article 1 μM, 37° C.), the “% Remaining of Initial (n = 1), 0 min” value was 100%; the “% Remaining of Initial (n = 1), 15 min” value was 61%; the “% Remaining of Initial (n = 1), 30 min” value was found to be 40%; the “% Remaining of Initial (n = 1), 60 min” value is on record as 18%. In addition, the “% Remaining of Initial (n = 1), 120 min” value in series [1] (test article 1 μM, 37° C.) was found to be 5.4%. Besides, the half-life at 1 μM in series [1] (setting [5]) was found to be 23 min. Also, the Bioavailability in series [2] (po) came out at 4.5%. The half-life in series [4] is below 1 min.
As to `CCCCC/C=C\C/C=C\CCCCCCCC(=O)OCC(COC(=O)CCC(=O)OCCNC(=O)CCCCCCCCCCCCCCC)OC(=O)CCCCCCC/C=C\C/C=C\CCCCC` (centres unmarked) [Compound I-13], the “% Remaining of Initial (n = 1)” value in series [1] (0 min, 1 μM) amounted to 100%; in series [1] (15 min, 1 μM) it was 90%; in series [1] (30 min, 1 μM), 72%; in series [1] (60 min, 1 μM), 54%; in series [1] (120 min, 1 μM) it was 23%. In series [1] (pH 7.4, Dog plasma, 1 μM), the half-life at 1 μM was found to be 61 min.
For `CCCCCCCCCCCCCCCC(=O)NCCOC(=O)CCC(=O)OC(COC(=O)CCC)COC(=O)CCC` [Compound I-16], the “% Remaining of Initial (n = 1)” value in series [3] (0 min) was 100%; in series [3] (15 min), below 4.5%; in series [3] (30 min), below 4.5%; in series [3] (60 min) it was below 4.5%; in series [3] (120 min), below 4.5%. The “Measured Concentration of Drug” value in series [3] (0 min) was 0.088 µM; in series [3] (15 min), 0 µM; in series [3] (30 min) it was 0 µM; in series [3] (60 min), 0 µM; in series [3] (120 min) it was 0 µM. The “% Remaining of Initial” value was determined as 100% in series [1] (0 min, 1 μM); 91% in series [1] (15 min, 1 μM); 65% in series [1] (30 min, 1 μM); 39% in series [1] (60 min, 1 μM); 13% in series [1] (120 min, 1 μM). The half-life at 1 μM in series [1] (pH 7.4, dog plasma) came out at 44 min. In series [2] (po), this compound displayed a Bioavailability of 12.1%. This compound had a half-life in series [4] below 1 min.
